# Measured values reported in ChEMBL document CHEMBL5465560, “Selectivity Literature for EUbOPEN Chemogenomic Library” (2024).
# Legend:
# [1] = target: Receptor tyrosine-protein kinase erbB-2 (Homo sapiens, UniProt P04626); assay: Selectivity interaction (Kinase panel (Invitrogen)) EUB0000639a ERBB2; details: at 200 nM
# [2] = target: Interferon-induced, double-stranded RNA-activated protein kinase (Homo sapiens) (UniProt P19525); assay: Selectivity interaction (ActivX KiNativ screen (kinase selectivity in THP-1 cell lysates)) EUB0000639a EIF2AK2; type: subcellular; details: lysate, at 0.04 µM
# [3] = target: Ribosomal protein S6 kinase alpha-5 (Homo sapiens) (UniProt O75582); assay: Selectivity interaction (Kinase panel (Invitrogen)) EUB0000639a RPS6KA5; details: at 200 nM
# [4] = target: 5'-AMP-activated protein kinase catalytic subunit alpha-2 (Homo sapiens) (UniProt P54646); assay: Selectivity interaction (ActivX KiNativ screen (kinase selectivity in THP-1 cell lysates)) EUB0000639a PRKAA2; type: subcellular; details: lysate, at 0.04 µM
# [5] = target: Serine/threonine-protein kinase Nek6 (Homo sapiens) (UniProt Q9HC98); assay: Selectivity interaction (Ambit KINOMEscan and KiNATiv profiling in Jurkat cells) EUB0000090b NEK6; type: cell-based; details: at 1 µM
# [6] = target: T1, Serine/threonine-protein kinase DCLK2 (Homo sapiens) (UniProt Q8N568); assay: Selectivity interaction (Upstate Kinase Profiler service (Millipore)) EUB0000056c DCLK2; details: at 1 µM
# T1 sequence (whole entry): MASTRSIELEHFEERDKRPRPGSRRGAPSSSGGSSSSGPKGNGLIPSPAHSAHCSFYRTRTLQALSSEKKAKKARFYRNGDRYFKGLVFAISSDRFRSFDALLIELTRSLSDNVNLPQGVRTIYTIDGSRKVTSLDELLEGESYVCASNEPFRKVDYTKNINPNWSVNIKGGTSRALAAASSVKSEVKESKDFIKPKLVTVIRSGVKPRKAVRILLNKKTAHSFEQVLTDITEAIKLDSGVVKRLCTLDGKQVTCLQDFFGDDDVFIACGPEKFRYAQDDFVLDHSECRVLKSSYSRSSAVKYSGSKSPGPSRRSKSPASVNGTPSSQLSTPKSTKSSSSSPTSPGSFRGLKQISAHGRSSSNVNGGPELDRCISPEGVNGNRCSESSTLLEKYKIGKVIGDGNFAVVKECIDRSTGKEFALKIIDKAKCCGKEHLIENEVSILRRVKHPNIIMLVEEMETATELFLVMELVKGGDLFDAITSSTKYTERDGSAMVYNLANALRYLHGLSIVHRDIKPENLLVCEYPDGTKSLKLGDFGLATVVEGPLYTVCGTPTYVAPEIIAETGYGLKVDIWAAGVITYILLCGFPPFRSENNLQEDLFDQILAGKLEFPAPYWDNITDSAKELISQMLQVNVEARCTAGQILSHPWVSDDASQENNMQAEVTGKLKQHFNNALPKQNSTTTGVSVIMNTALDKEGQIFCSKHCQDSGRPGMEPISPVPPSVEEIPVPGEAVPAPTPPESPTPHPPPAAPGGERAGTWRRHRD
# [7] = target: T2, Serine/threonine-protein kinase D3 (Homo sapiens) (UniProt O94806); assay: Selectivity interaction (SelectScreen profiling (Invitrogen)) EUB0000607a PRKD3; details: at 2 µM
# T2 sequence (whole entry): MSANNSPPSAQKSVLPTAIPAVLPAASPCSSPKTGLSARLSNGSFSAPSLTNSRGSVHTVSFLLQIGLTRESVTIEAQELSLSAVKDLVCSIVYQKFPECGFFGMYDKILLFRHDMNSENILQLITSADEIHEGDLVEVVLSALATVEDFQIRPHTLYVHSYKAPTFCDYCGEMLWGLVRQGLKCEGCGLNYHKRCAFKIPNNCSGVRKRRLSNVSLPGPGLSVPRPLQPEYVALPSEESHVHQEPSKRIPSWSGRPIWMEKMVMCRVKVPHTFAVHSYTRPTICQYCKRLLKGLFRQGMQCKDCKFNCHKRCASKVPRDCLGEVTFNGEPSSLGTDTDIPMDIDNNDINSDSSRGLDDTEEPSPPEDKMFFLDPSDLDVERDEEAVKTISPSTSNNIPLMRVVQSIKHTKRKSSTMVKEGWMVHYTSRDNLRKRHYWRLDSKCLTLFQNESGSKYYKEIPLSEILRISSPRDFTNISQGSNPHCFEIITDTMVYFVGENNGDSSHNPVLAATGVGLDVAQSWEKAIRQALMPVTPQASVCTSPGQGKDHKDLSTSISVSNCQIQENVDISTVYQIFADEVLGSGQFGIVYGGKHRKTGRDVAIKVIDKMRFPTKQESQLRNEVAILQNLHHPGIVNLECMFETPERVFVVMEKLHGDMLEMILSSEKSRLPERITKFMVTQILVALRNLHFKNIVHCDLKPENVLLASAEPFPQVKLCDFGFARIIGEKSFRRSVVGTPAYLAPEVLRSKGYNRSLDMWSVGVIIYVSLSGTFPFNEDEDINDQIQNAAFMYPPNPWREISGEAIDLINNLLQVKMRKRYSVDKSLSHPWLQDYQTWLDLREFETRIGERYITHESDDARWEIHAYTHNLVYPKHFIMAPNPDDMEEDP
# Chain of Ribosomal protein S6 kinase alpha-5 (Homo sapiens) (O75582 whole entry, looked up): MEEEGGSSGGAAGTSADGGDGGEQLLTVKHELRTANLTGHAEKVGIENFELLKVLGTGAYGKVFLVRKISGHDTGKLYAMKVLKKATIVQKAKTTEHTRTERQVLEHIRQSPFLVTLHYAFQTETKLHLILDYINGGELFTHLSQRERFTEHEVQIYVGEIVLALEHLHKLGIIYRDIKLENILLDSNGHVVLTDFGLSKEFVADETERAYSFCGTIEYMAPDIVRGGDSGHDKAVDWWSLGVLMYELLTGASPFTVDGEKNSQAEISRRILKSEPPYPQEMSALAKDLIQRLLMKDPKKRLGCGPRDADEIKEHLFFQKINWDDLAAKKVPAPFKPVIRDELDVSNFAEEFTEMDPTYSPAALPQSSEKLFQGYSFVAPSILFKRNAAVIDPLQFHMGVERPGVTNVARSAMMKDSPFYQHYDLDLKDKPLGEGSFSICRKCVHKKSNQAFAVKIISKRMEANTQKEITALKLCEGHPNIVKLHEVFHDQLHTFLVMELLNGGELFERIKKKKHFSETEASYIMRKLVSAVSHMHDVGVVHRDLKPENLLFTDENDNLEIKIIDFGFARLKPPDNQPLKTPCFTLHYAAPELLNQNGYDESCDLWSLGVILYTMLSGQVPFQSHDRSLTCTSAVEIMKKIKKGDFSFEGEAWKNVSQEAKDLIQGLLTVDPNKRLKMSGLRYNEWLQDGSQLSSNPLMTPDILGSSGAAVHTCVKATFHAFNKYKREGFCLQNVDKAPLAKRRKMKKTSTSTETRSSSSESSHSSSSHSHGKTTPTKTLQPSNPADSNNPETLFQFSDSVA
# Chain of Interferon-induced, double-stranded RNA-activated protein kinase (Homo sapiens) (P19525 whole entry): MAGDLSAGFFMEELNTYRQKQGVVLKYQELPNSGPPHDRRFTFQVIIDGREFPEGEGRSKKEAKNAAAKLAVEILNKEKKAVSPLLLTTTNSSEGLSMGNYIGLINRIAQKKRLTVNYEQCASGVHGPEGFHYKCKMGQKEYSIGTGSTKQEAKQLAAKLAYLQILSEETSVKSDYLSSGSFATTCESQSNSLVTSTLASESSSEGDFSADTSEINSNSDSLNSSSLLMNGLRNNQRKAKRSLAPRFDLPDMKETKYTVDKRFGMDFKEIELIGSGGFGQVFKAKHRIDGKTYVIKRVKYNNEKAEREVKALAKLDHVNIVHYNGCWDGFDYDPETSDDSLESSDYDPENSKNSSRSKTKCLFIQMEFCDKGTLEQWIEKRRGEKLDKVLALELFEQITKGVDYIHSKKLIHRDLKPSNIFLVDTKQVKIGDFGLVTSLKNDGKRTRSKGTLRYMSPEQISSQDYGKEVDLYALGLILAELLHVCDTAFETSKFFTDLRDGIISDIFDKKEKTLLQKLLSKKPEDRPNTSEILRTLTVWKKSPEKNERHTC
# Chain of 5'-AMP-activated protein kinase catalytic subunit alpha-2 (Homo sapiens) (P54646 whole entry, looked up): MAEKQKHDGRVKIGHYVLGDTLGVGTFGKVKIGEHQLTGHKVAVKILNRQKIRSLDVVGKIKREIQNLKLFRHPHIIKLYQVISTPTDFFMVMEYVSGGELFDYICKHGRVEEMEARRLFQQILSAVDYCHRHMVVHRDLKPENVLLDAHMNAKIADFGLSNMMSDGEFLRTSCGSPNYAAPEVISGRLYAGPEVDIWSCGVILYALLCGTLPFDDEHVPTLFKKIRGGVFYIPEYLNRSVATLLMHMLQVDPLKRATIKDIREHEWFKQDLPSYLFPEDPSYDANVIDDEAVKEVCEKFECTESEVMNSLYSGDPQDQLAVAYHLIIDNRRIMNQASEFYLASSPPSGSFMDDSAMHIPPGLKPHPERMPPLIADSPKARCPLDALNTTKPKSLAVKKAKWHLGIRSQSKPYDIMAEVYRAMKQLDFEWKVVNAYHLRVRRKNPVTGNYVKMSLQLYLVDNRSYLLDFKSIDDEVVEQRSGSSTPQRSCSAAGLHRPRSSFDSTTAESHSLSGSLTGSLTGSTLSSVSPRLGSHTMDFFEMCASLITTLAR
# Chain of Receptor tyrosine-protein kinase erbB-2 (P04626 whole entry): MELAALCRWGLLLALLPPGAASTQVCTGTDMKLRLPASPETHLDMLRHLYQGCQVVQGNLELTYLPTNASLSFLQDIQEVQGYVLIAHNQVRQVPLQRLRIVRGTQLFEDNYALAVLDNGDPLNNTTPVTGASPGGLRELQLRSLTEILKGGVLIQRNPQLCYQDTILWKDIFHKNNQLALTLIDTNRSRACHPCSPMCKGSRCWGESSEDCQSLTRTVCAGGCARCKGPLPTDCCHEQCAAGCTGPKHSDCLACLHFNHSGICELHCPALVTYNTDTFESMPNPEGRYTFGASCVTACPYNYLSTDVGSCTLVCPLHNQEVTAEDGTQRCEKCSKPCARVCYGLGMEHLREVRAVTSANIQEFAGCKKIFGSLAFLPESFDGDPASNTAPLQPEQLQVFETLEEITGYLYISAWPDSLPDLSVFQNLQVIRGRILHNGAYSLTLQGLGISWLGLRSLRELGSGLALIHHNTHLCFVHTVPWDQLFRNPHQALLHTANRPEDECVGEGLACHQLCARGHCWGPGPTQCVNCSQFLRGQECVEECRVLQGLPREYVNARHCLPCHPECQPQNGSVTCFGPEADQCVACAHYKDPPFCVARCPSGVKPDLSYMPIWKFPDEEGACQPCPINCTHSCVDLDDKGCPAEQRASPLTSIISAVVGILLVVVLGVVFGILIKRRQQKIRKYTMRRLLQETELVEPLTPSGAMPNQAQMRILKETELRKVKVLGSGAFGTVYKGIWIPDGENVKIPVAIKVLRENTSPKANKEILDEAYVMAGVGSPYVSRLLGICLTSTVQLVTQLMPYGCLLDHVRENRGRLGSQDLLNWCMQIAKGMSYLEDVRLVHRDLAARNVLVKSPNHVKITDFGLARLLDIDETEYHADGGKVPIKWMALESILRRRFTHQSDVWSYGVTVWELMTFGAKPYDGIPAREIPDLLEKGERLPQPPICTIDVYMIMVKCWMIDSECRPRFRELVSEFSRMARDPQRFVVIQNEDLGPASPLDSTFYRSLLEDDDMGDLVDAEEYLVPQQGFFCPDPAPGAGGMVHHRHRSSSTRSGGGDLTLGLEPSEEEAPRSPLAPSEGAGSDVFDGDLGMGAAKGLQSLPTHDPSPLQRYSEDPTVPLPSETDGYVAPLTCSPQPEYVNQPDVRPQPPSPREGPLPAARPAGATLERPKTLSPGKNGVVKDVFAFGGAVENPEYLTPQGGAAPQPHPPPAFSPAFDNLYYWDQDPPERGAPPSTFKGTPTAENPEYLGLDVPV
# Chain of Serine/threonine-protein kinase Nek6 (Homo sapiens) (Q9HC98 whole entry): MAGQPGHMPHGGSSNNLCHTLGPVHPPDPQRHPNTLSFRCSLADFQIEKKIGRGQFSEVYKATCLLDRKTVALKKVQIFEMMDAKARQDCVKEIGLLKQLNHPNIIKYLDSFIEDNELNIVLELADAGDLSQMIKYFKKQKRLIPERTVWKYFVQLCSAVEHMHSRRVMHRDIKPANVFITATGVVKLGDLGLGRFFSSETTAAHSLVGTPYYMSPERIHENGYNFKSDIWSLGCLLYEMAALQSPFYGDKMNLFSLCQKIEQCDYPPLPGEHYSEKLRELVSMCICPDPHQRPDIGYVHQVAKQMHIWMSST
smiles,measurement,setting,value
CC[C@@H]1[C@H](F)C(=O)N[C@@H]1COc1nccc2cc(C(N)=O)c(OC)cc12 [ZIMLOVISERTIB],% of inhibition,[1],-2.18%
same,% of inhibition,[2],3.1%
same,% of inhibition,[3],0.449%
same,% of inhibition,[4],-11.5%
CN(C)C/C=C/C(=O)Nc1ccc(C(=O)N2CCCC(Nc3ncc(Cl)c(-c4c[nH]c5ccccc45)n3)C2)cc1 (configuration not stated),% of control,[5],95%
Cc1ccc(-c2ccc3c(ccc4sc5c(c43)NC[C@@H](C)NC5=O)n2)cn1,% of inhibition,[6],-1%
CNC(=O)Nc1ccc(-c2nc(N3CC4CCC(C3)O4)c3cnn(C4CCC5(CC4)OCCO5)c3n2)cc1,% of inhibition,[7],4%
